Laboratory results published in ChEMBL document CHEMBL5329202, “New aryl-/heteroarylpiperazine derivatives of 1,7-dimethyl-8,9-diphenyl-4-azatricyclo[5.2.1.02,6]dec-8-ene-3,5,10-trione: Synthesis and preliminary studies of biological activities” (Bioorg Med Chem, 2023).
Active and inactive are the calls of the source. The rule behind the calls is not given here.

Legend:
[1] = tested on: K562; test: Antiproliferative activity against human K562 cells assessed as reduction in cell viability at IC50 measured after 72 hrs by trypan blue dye based assay relative to control; type: functional
[2] = tested on: HMEC-1; test: Induction of apoptosis in human HMEC-1 cells assessed as late apoptotic cells at IC50 incubated for 72 hrs by Annexin V-FITC/PI staining based flow cytometric analysis (reference value: 4.7 %); type: functional
[3] = tested on: SW-620; test: Induction of apoptosis in human SW620 cells assessed as necrotic cells at IC50 incubated for 72 hrs by Annexin V-FITC/PI staining based flow cytometric analysis (reference value: 0.7 %); type: functional
[4] = tested on: PC-3; test: Induction of apoptosis in human PC-3 cells assessed as necrotic cells at IC50 incubated for 72 hrs by Annexin V-FITC/PI staining based flow cytometric analysis (reference value: 3.6 %); type: functional
[5] = tested on: SW480; test: Induction of apoptosis in human SW480 cells assessed as necrotic cells at IC50 incubated for 72 hrs by Annexin V-FITC/PI staining based flow cytometric analysis (reference value: 0.1 %); type: functional
[6] = tested on: HCT-116; test: Induction of apoptosis in human HCT-116 cells assessed as viable cells at IC50 incubated for 72 hrs by Annexin V-FITC/PI staining based flow cytometric analysis (reference value: 90.5 %); type: functional
[7] = tested on: SW-620; test: Induction of apoptosis in human SW620 cells assessed as viable cells at IC50 incubated for 72 hrs by Annexin V-FITC/PI staining based flow cytometric analysis (reference value: 92.9 %); type: functional
[8] = tested on: HCT-116; test: Induction of apoptosis in human HCT-116 cells assessed as increase in caspase-3/7 activity at IC50 incubated for 24 hrs by Glo assay relative to control; type: functional
[9] = tested on: PC-3; test: Cytotoxicity against human PC-3 cells assessed as cell growth inhibition measured after 72 hrs by MTT assay; type: functional, cell-based; conditions: PC-3, 72 h
[10] = tested on: HCT-116; test: Induction of apoptosis in human HCT-116 cells assessed as late apoptotic cells at IC50 incubated for 72 hrs by Annexin V-FITC/PI staining based flow cytometric analysis (reference value: 1.6 %); type: functional
[11] = tested on: PC-3; test: Induction of apoptosis in human PC-3 cells assessed as early apoptotic cells at IC50 incubated for 72 hrs by Annexin V-FITC/PI staining based flow cytometric analysis (reference value: 0.3 %); type: functional
[12] = tested on: SW-620; test: Antiproliferative activity against human SW620 cells assessed as decrease in IL-6 level at IC50 measured after 72 hrs by ELISA assay relative to control; type: functional; parameters: scale not given: the % may be the effect or the level left
[13] = tested on: HaCaT; test: Induction of apoptosis in human HaCaT cells at IC50 incubated for 72 hrs by Annexin V-FITC/PI staining based flow cytometric analysis; type: functional, cell-based
[14] = tested on: PC-3; test: Induction of apoptosis in human PC-3 cells assessed as late apoptotic cells at IC50 incubated for 72 hrs by Annexin V-FITC/PI staining based flow cytometric analysis (reference value: 1.7 %); type: functional
[15] = tested on: SW-620; test: Induction of apoptosis in human SW620 cells assessed as early apoptotic cells at IC50 incubated for 72 hrs by Annexin V-FITC/PI staining based flow cytometric analysis (reference value: 5.2 %); type: functional
[16] = tested on: SW480; test: Induction of apoptosis in human SW480 cells assessed as viable cells at IC50 incubated for 72 hrs by Annexin V-FITC/PI staining based flow cytometric analysis (reference value: 97.7 %); type: functional
[17] = tested on: SW-620; test: Antiproliferative activity against human SW620 cells assessed as reduction in cell number at IC50 measured after 72 hrs by trypan blue dye based assay relative to control; type: functional; parameters: scale not given: the % may be the effect or the level left
[18] = tested on: SW480; test: Induction of apoptosis in human SW480 cells assessed as late apoptotic cells at IC50 incubated for 72 hrs by Annexin V-FITC/PI staining based flow cytometric analysis (reference value: 0.8 %); type: functional
[19] = target: 5-hydroxytryptamine receptor 2A (Rattus norvegicus, UniProt P14842); test: Displacement of [3H]ketanserin from Sprague-Dawley rat 5-HT2A receptor assessed as inhibition constant measured after 60 mins by competitive binding assay
5-hydroxytryptamine receptor 2A, sequence (P14842 whole entry): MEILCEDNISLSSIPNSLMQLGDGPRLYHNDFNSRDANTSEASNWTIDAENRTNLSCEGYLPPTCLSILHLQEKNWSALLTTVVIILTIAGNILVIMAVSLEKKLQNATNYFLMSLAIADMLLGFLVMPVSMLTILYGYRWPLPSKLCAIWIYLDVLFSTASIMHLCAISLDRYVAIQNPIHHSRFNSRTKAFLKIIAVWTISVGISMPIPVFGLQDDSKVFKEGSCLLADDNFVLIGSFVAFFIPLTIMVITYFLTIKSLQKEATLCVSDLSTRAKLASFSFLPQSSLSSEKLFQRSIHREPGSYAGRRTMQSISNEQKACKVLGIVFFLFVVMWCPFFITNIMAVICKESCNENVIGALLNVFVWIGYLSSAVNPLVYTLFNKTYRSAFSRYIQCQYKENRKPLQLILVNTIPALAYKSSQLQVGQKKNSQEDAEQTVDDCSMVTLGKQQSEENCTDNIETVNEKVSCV

[20] = tested on: SW480; test: Antiproliferative activity against human SW480 cells assessed as reduction in cell number at IC50 measured after 72 hrs by trypan blue dye based assay relative to control; type: functional; parameters: scale not given: the % may be the effect or the level left
[21] = tested on: HepG2; test: Cytotoxicity against human HepG2 cells assessed as cell growth inhibition measured after 72 hrs by MTT assay; type: functional, cell-based; conditions: HepG2, 72 h
[22] = tested on: SW480; test: Induction of apoptosis in human SW480 cells assessed as early apoptotic cells at IC50 incubated for 72 hrs by Annexin V-FITC/PI staining based flow cytometric analysis (reference value: […]); type: functional
[23] = tested on: HCT-116; test: Cytotoxicity against human HCT-116 cells assessed as cell growth inhibition measured after 72 hrs by MTT assay; type: functional, cell-based; conditions: HCT-116, 72 h
[24] = tested on: PC-3; test: Induction of apoptosis in human PC-3 cells assessed as viable cells at IC50 incubated for 72 hrs by Annexin V-FITC/PI staining based flow cytometric analysis (reference value: 94.4 %); type: functional
[25] = Selectivity index, ratio of IC50 for cytotoxicity against human HMEC-1 cells to IC50 for cytotoxicity against human SW620 cells
[26] = tested on: HCT-116; test: Antiproliferative activity against human HCT-116 cells assessed as decrease in IL-6 level at IC50 measured after 72 hrs by ELISA assay relative to control; type: functional; parameters: scale not given: the % may be the effect or the level left
[27] = target: Histamine H1 receptor (Rattus norvegicus, UniProt P31390); test: Displacement of [3H]pyrilamine from Sprague-Dawley rat H1 receptor assessed as inhibition constant measured after 30 mins by competitive binding assay
Histamine H1 receptor, sequence (P31390 whole entry): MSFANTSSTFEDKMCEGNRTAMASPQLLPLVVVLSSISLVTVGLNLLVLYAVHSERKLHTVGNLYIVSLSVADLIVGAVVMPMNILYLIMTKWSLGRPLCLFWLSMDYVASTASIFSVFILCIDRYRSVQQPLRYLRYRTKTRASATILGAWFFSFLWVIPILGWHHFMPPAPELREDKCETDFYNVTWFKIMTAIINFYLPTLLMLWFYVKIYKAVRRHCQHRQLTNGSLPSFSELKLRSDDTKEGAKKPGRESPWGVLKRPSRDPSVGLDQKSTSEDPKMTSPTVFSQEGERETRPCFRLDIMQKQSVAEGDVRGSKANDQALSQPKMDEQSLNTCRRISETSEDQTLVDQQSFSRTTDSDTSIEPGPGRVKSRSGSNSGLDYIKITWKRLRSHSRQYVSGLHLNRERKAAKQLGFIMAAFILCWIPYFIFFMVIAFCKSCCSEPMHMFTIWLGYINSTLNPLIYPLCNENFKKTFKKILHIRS

[28] = tested on: SW-620; test: Antiproliferative activity against human SW620 cells assessed as reduction in cell viability at IC50 measured after 72 hrs by trypan blue dye based assay relative to control; type: functional
[29] = tested on: SW-620; test: Induction of apoptosis in human SW620 cells assessed as late apoptotic cells at IC50 incubated for 72 hrs by Annexin V-FITC/PI staining based flow cytometric analysis (reference value: 1.2 %); type: functional
[30] = tested on: SW480; test: Antiproliferative activity against human SW480 cells assessed as reduction in cell viability at IC50 measured after 72 hrs by trypan blue dye based assay relative to control; type: functional
[31] = tested on: PC-3; test: Induction of apoptosis in human PC-3 cells assessed as increase in caspase-3/7 activity at IC50 incubated for 24 hrs by Glo assay relative to control; type: functional
[32] = tested on: PC-3; test: Antiproliferative activity against human PC-3 cells assessed as reduction in cell number at IC50 measured after 72 hrs by trypan blue dye based assay relative to control; type: functional; parameters: scale not given: the % may be the effect or the level left
[33] = tested on: PC-3; test: Antiproliferative activity against human PC-3 cells assessed as reduction in cell viability at IC50 measured after 72 hrs by trypan blue dye based assay relative to control; type: functional
[34] = tested on: HaCaT; test: Induction of apoptosis in human HaCaT cells assessed as late apoptotic cells at IC50 incubated for 72 hrs by Annexin V-FITC/PI staining based flow cytometric analysis relative to control; type: functional
[35] = tested on: HMEC-1; test: Induction of apoptosis in human HMEC-1 cells assessed as increase in caspase-3/7 activity at IC50 incubated for 24 hrs by Glo assay relative to control; type: functional
[36] = tested on: PC-3; test: Antiproliferative activity against human PC-3 cells assessed as decrease in IL-6 level at IC50 measured after 72 hrs by ELISA assay relative to control; type: functional; parameters: scale not given: the % may be the effect or the level left
[37] = tested on: HCT-116; test: Induction of apoptosis in human HCT-116 cells assessed as increase in caspase-3/7 activity at IC50 incubated for 24 hrs by Glo assay; type: functional, cell-based

Row | Structure (SMILES) | Activity [1] [%] | Activity [2] [%] | Activity [4] [%] | Activity [5] [%] | Activity [6] [%] | Activity [8] [%] | IC50 [9] [µM] | Activity [10] [%] | Activity [13] | Activity [16] [%] | Activity [18] [%] | Ki [19] [µM] | Activity [20] [%] | IC50 [21] [µM] | Activity [22] [%] | IC50 [23] [µM] | Ratio IC50 [25] | Activity [26] [%] | Ki [27] [µM] | Activity [30] [%] | other results
1 | CC12C(=O)C(C)(C(c3ccccc3)=C1c1ccccc1)C1C(=O)N(CCCCN3CCN(c4ccccc4Cl)CC3)C(=O)C12 (stereo unspecified) | 30 | 4.7 | 3.1 | 0.1 | 58 | 137 | 7.85 | 5 | inactive | 89 | 1 | 0.1 | 38 | 12.9 | 10 | 3.58 | 3.33 | 53 | 0.03 | 21 | Activity [3]: 1.8%; Activity [7]: 89.9%; Activity [11]: 4.2%; Activity [12]: 24%; Activity [14]: 32.6%; Activity [15]: 6.1%; Activity [17]: 27%; Activity [24]: 60.1%; Activity [28]: 23%; Activity [29]: 2.2%; Activity [31]: 216%; Activity [32]: 43%; Activity [33]: 26%
2 | CC12C(=O)C(C)(C(c3ccccc3)=C1c1ccccc1)C1C(=O)N(CCCCN3CCN(c4ccccc4F)CC3)C(=O)C12 (stereo unspecified) | 30 | 7.3 | 2.1 | 0.1 | 74.9 | 137 | 9.19 | 1.9 |  | 87.8 | 1.4 | 0.3 | 46 | 26.8 | 10.8 | 4.48 | 0.79 | 53 | 0.007 | 21 | Activity [34]: 12.3%; Activity [35]: 13%; Activity [11]: 6.3%; Activity [14]: 16.2%; Activity [24]: 75.6%; Activity [31]: 127%; Activity [32]: 27%; Activity [33]: 26%
3 | CC12C(=O)C(C)(C(c3ccccc3)=C1c1ccccc1)C1C(=O)N(CCCCN3CCN(c4cccc(Cl)c4)CC3)C(=O)C12 (stereo unspecified) | 30 | 7.8 | 2.1 | 0.1 | 81.5 |  | 8.61 | 2.5 | inactive | 81.9 | 1.2 | 25.3 | 39 | 14.1 | 16.8 | 6.19 | 1.38 |  | 0.08 | 21 | Activity [11]: 3.3%; Activity [14]: 16.2%; Activity [36]: 51%; Activity [24]: 78.5%; Activity [37]: inactive; Activity [31]: 70%; Activity [32]: 29%; Activity [33]: 26%
4 | CC12C(=O)C(C)(C(c3ccccc3)=C1c1ccccc1)C1C(=O)N(CCCCN3CCN(c4ccccn4)CC3)C(=O)C12 (stereo unspecified) | 37 | 1.4 |  |  | 85.5 |  | 21.2 | 2.1 | inactive |  |  | 4.7 |  | 14.6 |  | 8.38 | 2.29 |  | 0.6 |  | Activity [37]: inactive
5 | COc1ccccc1N1CCN(CCCCN2C(=O)C3C(C2=O)C2(C)C(=O)C3(C)C(c3ccccc3)=C2c2ccccc2)CC1 (stereo unspecified) | 44 | 1.8 |  | 0.1 | 79.2 | 53 | 14.6 | 2.3 | inactive | 87.1 | 1.7 | 0.2 | 40 | 15.7 | 11.1 | 8.89 | 6.3 | 53 | 0.3 | 22 | Activity [3]: 1.4%; Activity [7]: 89.2%; Activity [12]: 31%; Activity [15]: 7.6%; Activity [17]: 27%; Activity [28]: 27%; Activity [29]: 1.8%
6 | CC12C(=O)C(C)(C(c3ccccc3)=C1c1ccccc1)C1C(=O)N(CCCCN3CCN(c4ncccn4)CC3)C(=O)C12 (stereo unspecified) | 28 | 2.4 |  |  | 37.4 | 137 | 20.4 | 4.1 | inactive |  |  |  |  | 16.7 |  | 4.63 | 2.26 | 53 | 0.006 |  | 
